Results from US20230263798A1, “COMPOSITIONS AND METHODS FOR TREATING THERAPY RESISTANT CANCER” (The General Hospital Corporation, priority 2020, published 2023).

Key:
HuR = test: Western blot of HuR; format: cell-based; details: over time of doxorubicin treatment
Source text: Western blot is shown of other RNA binding proteins that increase in mass spectrometry data. […] FIGS. 6J and 6K show Hexim, PPM1G and HuR increase in chemotreated patient samples and on doxorubicin treatment.

phospho-elF2α [1] = test: Western blot of elF2α phosphorylation in BT549 cells; format: cell-based; details: over time of treatment
Protocol: (§1) Data are average of 3 replicates +/-SEM. Tubulin serves as the loading control.
To determine the mechanisms of specific mRNA expression in chemosurviving cancer cells, we examined RNA binding regulators in chemosurviving MCF7 breast cancer cells, isolated after doxorubicin chemotherapy treatment. […] The increase observed is transient and is not observed at 48 h of treatment (FIG. 2A).

METTL14 = test: Western blot of METTL14 in breast cancer patient samples grown as tumor spheres; format: cell-based
METTL3 mRNA = METTL3 mRNA level and translation (qPCR, polysome fractionation, nascent amino acid labeling); format: cell-based
Protocol: (§2) Tubulin and Histone serve as Western blot loading controls. Data are average of 3 replicates +/-SEM. See also FIGS. 4A-4H.
(§3) Actin and Tubulin are loading controls for Western blots. Data are average of 3 replicates +/-SEM.
To verify that the increase in METTL3 was at the translation level, polysome analysis was conducted first. […] We next verified increased polysome association of METTL3 mRNA with Y10B antibody immunoprecipitation in doxorubicin treated and in Sal003 cells compared to buffer treated cells (FIGS. 3I and 4F).

METTL3 [2] = test: Western blot of METTL3 in breast cancer patient samples grown in 3D cultures; format: cell-based; details: hormone positive breast cancer patient samples grown as tumor spheres
Source text: (§4) The Western blot includes samples with control shRNA or shMETTL3. […] Tubulin and Histone serve as Western blot loading controls. Data are average of 3 replicates +/-SEM. See also FIGS. 2A-2G.
As METTL3 increases in chemosurviving cells and increases m6A on RNA, we tested whether METTL3 increase is needed for chemosurvival by depleting METTL3 or overexpressing METTL3 or a catalytically defective METTL3 (CD-M3) mutant and then tested these cells for doxorubicin survival.

m6A on RNA = test: m6A on ribosomal RNA depleted RNA (dot blot, 2D-TLC); format: cell-based; details: ribosomal RNA depleted RNA from treated vs untreated MCF7 cells; dot blot or 2D-TLC
Protocol: The Western blot includes samples with control shRNA or shMETTL3. […] Tubulin and Histone serve as Western blot loading controls. Data are average of 3 replicates +/-SEM. See also FIGS. 2A-2G. […]
To test whether the increased m6A modification enzymes lead to increased m6A modification on RNA, ribosomal RNA depleted RNA from doxorubicin treated cells compared to untreated cells by dot blot analyses was tested. […] Consistent with decreased METTL3 upon knockdown, the dot blot signal is depleted when METTL3 is knocked down (FIG. 1B). Second, RNA from doxorubicin treated cells for m6A by two-dimensional-thin layer chromatography separation (2D-TLC) was performed (H. Grosjean, G. Keith, L. Droogmans, Detection and quantification of modified nucleotides in RNA using thin-layer chromatography. Methods in molecular biology (Clifton, N.J.) 265, 357-391 (2004)).

METTL3 5′UTR = test: Firefly luciferase reporter bearing the 5′UTR of METTL3; format: cell-based; details: doxorubicin treated vs untreated cells, normalized to Renilla
Source text: FIGS. 5A-5I show HuR and associated translation initiation factors promote METTL3 translation in doxorubicin resistant cells. […] Tubulin is the loading control for Western blots. Data are average of 3 replicates +/-SEM. See also FIGS. 6A-6K.
To test if METTL3 mRNA encodes for cis-acting elements that direct its translation upregulation in doxorubicin-treated cells, we constructed Luciferase reporters bearing METTL3 mRNA 5′UTR and 3′UTR, or their reverse sequences or vector sequence as controls. We tested these reporters and their controls in untreated and doxorubicin treated cells. […] Importantly, RNA levels of the 5′UTR reporter remained unaffected between doxorubicin treated compared to untreated cells, and compared to reverse or vector reporters, indicating translation control.

METTL3 [3] = test: Western blot of METTL3 in BT549 cells; format: cell-based; details: over time of treatment
METTL3 [4] = test: Western blot of METTL3 in patient-derived xenografts treated in vivo; details: hormone positive breast cancer patient derived xenografts, 2-1 0 mg/kg doxorubicin in vivo
METTL3 [5] = test: Western blot analysis of METTL3 in MCF7 cells; format: cell-based; details: MCF7 cells, agent alone vs untreated/buffer, Western blot
Source text: as §4, §1, §2, §3
(§5) FIGS. 8C and 8D show Western blot analysis of PARP1, phospho-elF2α, METTL3 with doxorubicin or Sal003 treatment. […] 500 nM Doxorubicin treated MCF7 cells were co-treated with 6uM of Enzastaurin or DMSO buffer. […] Data are average of 3 replicates +/-SEM.
To determine the mechanisms of specific mRNA expression in chemosurviving cancer cells, we examined RNA binding regulators in chemosurviving MCF7 breast cancer cells, isolated after doxorubicin chemotherapy treatment.

PARP1 = test: Western blot analysis of PARP1; format: cell-based; details: treated cells
Protocol: as §5
Consistently, doxorubicin treated cells are sensitive to PARP inhibitors, such as Talazoparib (BMN-673, FIG. 8B).

phospho-elF2α [6] = test: Western blot of elF2α phosphorylation in MCF7 cells; format: cell-based; details: MCF7 cells, agent alone, Western blot
Protocol: as §5

Q: How did the HuR level (HuR) turn out when `COc1cccc2c1C(=O)c1c(O)c3c(c(O)c1C2=O)C[C@@](O)(C(=O)CO)C[C@@H]3O[C@H]1C[C@H](N)[C@H](O)[C@H](C)O1` [doxorubicin] was run?
A: increase

Q: And the elF2α phosphorylation (phospho-elF2α [1])?
A: transient increase

Q: And the METTL14 level (METTL14)?
A: Increase

Q: And the “labeled (newly translated) METTL3, nascent translation assay” value (METTL3 mRNA; Click-it Puro labeling, METTL3 immunoprecipitation, treated vs untreated)?
A: increase

Q: And the “METTL3 and METTL14 RNA levels by qPCR” value (METTL3 mRNA; doxorubicin treated vs untreated cells)?
A: no increase

Q: And the “METTL3 mRNA on polysomes compared to monosomes” value (METTL3 mRNA; treated vs buffer treated cells, polysome fractionation and qPCR)?
A: increased

Q: And the METTL3 level (METTL3 [2])?
A: increased

Q: What about the “m6A on RNA” value (m6A on RNA) of the same molecule?
A: more m6A modified RNA

Q: What about the “METTL3 5′UTR luciferase reporter translation” value (METTL3 5′UTR) of the same molecule?
A: enhanced translation

Q: And the METTL3 level (METTL3 [3])?
A: transient increase

Q: What about the METTL3 level (METTL3 [4]) of the same molecule?
A: increases

Q: What about the METTL3 level (METTL3 [5]) of the same molecule?
A: increases

Q: What about the PARP1 level (PARP1) of the same molecule?
A: increases

Q: And the elF2α phosphorylation (phospho-elF2α [6])?
A: phosphorylated over time
